Experimental data from US20210345614A1, “APPLICATION OF 7-CARBOXYBENZO[1,2,3]THIADIAZOLE AMIDES AS PLANT STIMULANTS” (ADAM MICKIEWICZ UNIVERSITY FOUNDATION, priority 2015, published 2021).

Assays:
[1] = system: Brome Mosaic Virus BMV; test: Protection of barley against Brome Mosaic Virus infection by watering; type: in vivo
Procedure: […] Control barley plants were treated with water only. One week after the second application of BTHWA, in each plant, one young developed leaf was sprinkled with carborundum to obtain small scratches, which helped in the virus infection.

[2] = system: tobacco mosaic virus (TMV); test: BTHWA effect on the infectivity of tobacco mosaic virus (virus pre-incubated with compound, necrotic spots on tobacco leaves); type: in vivo, tobacco cv. xanthi; details: TMV approx. 3 μg/ml incubated 30 min with BTHWA 40 mg/L 1:1; after 5 days
Procedure: Purified tobacco mosaic virus (TMV) at a concentration of approx. 3 μg/ml was mixed with N-methyl-N-methoxy-7-carboxybenzo[1,2,3]thiadiazole amide (BTHWA) formulation (concentration 40 mg/L) in a 1:1 volume ratio and incubated for 30 min at room temperature (treated leaves). The control was TMV incubated in water. Both virus suspensions were used to mechanically infect tobacco leaves cv. xanthi. Local necrotic spots (hypersensitivity, local infection) produced on the tobacco leaves were measured.

[3] = system: Pseudomonas syringe pv. tomato; test: Protection of tomato against bacterial infection of Pseudomonas syringe pv. tomato; type: in vivo, Tomato Lycopersicon esculentum Mill; details: sprayed twice, 20 mg/L
Procedure: Tomato plants in the phase of first pair of developed true leaves were watered twice with BTHWA at a concentration of 20 mg/L, at a weekly interval. Control tomato plants were treated with water only. One week after the second treatment Pseudomonas syringe pv. tomato bacterial suspension at a concentration of 10^5 CFU/cm^3 was introduced to the leaf using an insulin syringe (without a needle). Bacterial suspension was prepared from two-day Pseudomonas syringe pv. tomato culture on solid medium. Protection against biotic stress was evaluated based on the amount of bacterial growth in the leaves at the point of introduction followed by the formation of necrotic spots, and this compared with the control. […] The procedure as described in Example 16 was followed, however, the plants were sprayed. BTHWA at the concentration of 20 mg/L was applied twice by spraying.

[4] = system: Powdery mildew; test: Protection of tomato against fungal infection of Powdery mildew; type: in vivo, Tomato Lycopersicon esculentum Mill
Procedure: Tomato plants in the phase of first pair of developed true leaves were watered twice with BTHWA at a concentration of 20 mg/L, at a weekly interval. Control tomato plants were treater with water only. One week after the second treatment with BTHWA, Powdery mildew fungi suspension was introduced to the leaf using an insulin syringe (without a needle). The suspension was prepared from a culture in solid medium solid. Protection against biotic stress was evaluated based on comparing the area of the leaves infected by the fungi. […] The procedure as described in Example 18 was followed, however, the plants were sprayed.

[5] = system: Tobacco plants; test: Protection against abiotic stress in tobacco caused by lack of water; type: in vivo; details: watered twice 20 mg/L; 10 days after cessation of watering
Procedure: Tobacco plants at the stage of 3 developed leaves were watered twice with BTHWA at concentration of 20 mg/L, at a weekly intervals. Control […] plants were watered with water only. A week after the second treatment, plants were exposed to a stress factor in the form of lack of access to water.

[6] = system: potato virus Y (PVY); test: Field experiment on potato, PVY infection of tubers by DAS ELISA; type: in vivo, potato variety Altesse; details: for % of tubes infected by PVY Virus: field
[7] = system: tobacco mosaic virus (TMV); test: TMV-tobacco cv. xanthi model, protection against biotic stress (necrotic spots); type: in vivo, Nicotiana tabacum cv. xanthi; details: for Resistance induction [%] (Reduction of necrotic spots related to control): evaluated after another 4 days
Procedure: Tobacco plants (Nicotiana tabacum) cv. xanthi at the stage of three developed leaves was watered (i.e. applied to the roots) twice with BTHWA solution of 10 mg/L, in one-week intervals. Control tobacco plants were irrigated with water only. […] To assess the biological effectiveness in protecting plants against biotic stress, the TMV-tobacco cv. xanthi model was used. This pathogen-plant model includes determining the hypersensitivity interaction phenomena with formation of necrotic spots which are quantifiable.
Tobacco plants (Nicotiana tabacum) cv. xanthi at the stage of three developed leaves were sprayed once with BION™ or BTHWA solutions at a concentration of 20 mg/L. A week later, the plants were mechanically infected with TMV virus by repeatedly rubbing the leaves with carborundum steeped in a suspension of the purified virus at the concentration of approx. 2 μg/ml. The level of protection against biotic stress was assessed by comparing the number of necrotic spots caused by TMV on the leaves of plants treated by BTHWA or BION™ and compared to the control (plant sprayed with water only).
Reduction of the amount of necrotic spots indicates protection against influence of the biotic factor on the plant.
The procedure as described in Example 4 was followed, however, the treated and control plants were divided into three batches and their leaves were inoculated with a virus, respectively after 1, 2, and 3 weeks past the last treatment with BTHWA or water only.
After six days, plants treated with a solution of the working fluid at a BTHWA concentration <100 mg/L were inoculated with tobacco mosaic virus (TMV) in order to determine the degree of induction of resistance caused by the formulation. After another 4 days of infection by TMV, the level of infection was evaluated by determining the number and size of necrotic spot caused by viral disease oi the plant leaves relative to the control.
Research on the durability of the induced resistance effect on the model of tobacco plants against TMV virus was performed. […] The group of plants were then infected with the virus after 1, 3, 6, 10, 15, 20, 25 and 30 days (Table 3).

[8] = system: Tomato plants; test: Protection against abiotic stress in tomato caused by herbicide (glyphosate); type: in vivo; details: watered twice 20 mg/L; glyphosate 0.005% aqueous solution; 10 days after herbicide application
Procedure: Tomato plants in the phase of first pair of developed true leaves were watered twice with BTHWA at concentration of 20 mg/L, at a weekly intervals. Control tomato plants were treated with water only.

[9] = system: Nicotiana tabacum var. xanthi; test: Phytotoxicity of BTHWA spray on tobacco under greenhouse conditions; details: 5 to 1000 mg/L tested
Procedure: Experiments were carried out on a model tobacco plant (Nicotiana tabacum var. xanthi) under greenhouse conditions, where the plant was in the three-developed leaves phase. The plants were sprayed (with full coverage of the leaves surface) with a solution of a working fluid having a concentration of active substance (BTHWA) starting from 5 and ending at 1000 mg/L The phytotoxicity of the BTHWA was evaluated.

[10] = system: tobacco mosaic virus (TMV); test: TMV-tobacco cv. xanthi model, protection against biotic stress (necrotic spots); type: in vivo, Nicotiana tabacum cv. xanthi; details: sprayed twice at weekly intervals with 10 mg/L
[11] = watered once with 100 ml of 20 mg/L

SMILES: CON(C)C(=O)c1cccc2nnsc12 [BTHWA, N-methyl-N-methoxy-7-carboxybenzo[1,2,3]thiadiazole amide]
- biotic stress effects (disease symptoms) compared to control ([1]; watered twice at weekly intervals with 70 ml of 20 mg/L, two weeks after BMV infection): showed no presence of biotic stress effects
- prevention of biotic stress caused by BMV infection ([1]; watered with 10 mg/L): 65%
- difference in number of necrotic spots between control and treated leaves [2]: 12%
- protection against the effects of bacterial infection [3]: fully protecting plants against the effects of bacterial infection
- protection against the effects of fungal infection ([4]; 10 mg/L, watering and spraying): almost completely securing plants from the effects of fungal infection
- protection against the effects of fungal infection ([4]; sprayed twice, 20 mg/L): fully protecting plants against the effects of fungal infection
- fungal infection and formation of infected leaf areas ([4]; watered twice at a weekly interval, 20 mg/L): fungal infection and formation of infected areas were not observed
- total mass of the untreated plants lower than the weight of the treated plants [5]: 13%
- reduction in the amount of PVY virus occurrence in the treated plants ([6]; foliar application 20 mg/L of operational fluid, field conditions): ~50%
- % of tubes infected by PVY Virus ([6]; foliar application 20 mg/L with mineral oil adjuvant, 7 days intervals): 44.2%
- % of tubes infected by PVY Virus ([6]; tuber dressing 20 mg/L + foliar application 20 mg/L): 40.7%
- Resistance induction [%] (Reduction of necrotic spots related to control) ([7]; spray 5 mg/L, TMV inoculation after six days): 85%
- Resistance induction [%] (Reduction of necrotic spots related to control) ([7]; spray 10 mg/L, TMV inoculation after six days): 97%
- Resistance induction [%] (Reduction of necrotic spots related to control) ([7]; spray 20 mg/L, TMV inoculation after six days): 97%
- Resistance induction [%] (Reduction of necrotic spots related to control) ([7]; spray 50 mg/L, TMV inoculation after six days): 98%
- lowest possible concentration at which the efficiency is maintained at greater than 90% ([7]; spray, TMV inoculation after six days): 10 mg/L
- effectiveness in preventing biotic stress compared with BION ([7]; sprayed once, 20 mg/L): more effective in preventing the occurrence of biotic stress
- Average number of the local necrotic spots per leaf ([7]; sprayed once, 20 mg/L, TMV infection a week later): 0
- Reduction of necrotic spots [%] ([7]; sprayed once, 20 mg/L, TMV infection a week later, vs control): 100%
- persistence of the resistance effect after a single application [7, 11]: up to 25 days
- time to activation of resistance after application [7, 11]: after at least three days
- % of induction (reduction of necrotic spots related to control) ([7]; watered once with 100 ml of 20 mg/L, virus inoculation 1 day after application): <10%
- % of induction (reduction of necrotic spots related to control) ([7]; watered once with 100 ml of 20 mg/L, virus inoculation 3 days after application): 10-20%
- % of induction (reduction of necrotic spots related to control) ([7]; watered once with 100 ml of 20 mg/L, virus inoculation 6 days after application): 94%
- % of induction (reduction of necrotic spots related to control) ([7]; watered once with 100 ml of 20 mg/L, virus inoculation 10 days after application): 96%
- % of induction (reduction of necrotic spots related to control) ([7]; watered once with 100 ml of 20 mg/L, virus inoculation 15 days after application): 95%
- % of induction (reduction of necrotic spots related to control) ([7]; watered once with 100 ml of 20 mg/L, virus inoculation 20 days after application): 95%
- % of induction (reduction of necrotic spots related to control) ([7]; watered once with 100 ml of 20 mg/L, virus inoculation 25 days after application): 91%
- % of induction (reduction of necrotic spots related to control) ([7]; watered once with 100 ml of 20 mg/L, virus inoculation 30 days after application): 85%
- protection against biotic stress (number of necrotic spots vs control) ([7]; watered twice with 10 mg/L at one-week intervals, TMV infection a week after second treatment): restricts the influence of biotic factor
- durability of protection against TMV biotic stress ([7]; watering 10 mg/L twice, inoculation 1, 2 and 3 weeks after last treatment): effective after three weeks
- lesser negative effect of the herbicide compared to the control [8]: 30%
- concentration in the working fluid at which phytotoxic effects were observed (yellowing of the leaves, necrosis of leaves, growth inhibition) [9]: above 100 mg/L
- protection against biotic stress caused by TMV infection [10]: protected the treated leaves against biotic stress
